Experimental data taken from patent US4735953A, “Pharmaceutical preparation for learning stimulation and memory improvement” (priority 1986, dated 1988).

Assays:
[1] = test system: cerebral cortex of rabbits; assay: Asymmetry factor by induced potential in the hearing zone of the cerebral cortex; type: in vivo, rabbit
Experimental: (§1) In the third series of experiments the effect of the preparation according to the present invention on the functional brain asymmetry was studied. The experiments were carried out on rabbits with electrodes implanted in the brain. The electrodes under nembutal narcosis (40 mg/kg) were implanted strictly symmetrically into the bearing zone of the temporal cortex of the right and left hemispheres on its lateral surface, whereas the indifferent electrode was secured to the nasal bones of a rabbit's skull. The acoustic irritation was applied through earphones. As the acoustic irritation a sound click caused by a square-shaped pulse from an electronic stimulator with a frequency of 0.1-0.2 Hz was used; the click intensity was adjusted within the range of from 5 to 80 Db. The amplification of the taken-off biopotentials was effected on an electroencephalograph; the induced potentials were obtained by means of an analyzer. 100 experiments on 20 animals were thus conducted; the interval between experiments on one animal was 7 days. The amplitude and form of the induced potential were determined. The asymmetry factor (Kas) was calculated by the formula: [formula] Ar --amplitude of the induced potential of the […] hemisphere, μV;
(§2) A1 --amplitude of the induced potential of the left hemisphere.
(§3) The test preparations were administered hypodermally in the form of 0.5-1.5% aqueous solutions 20 minutes before the beginning of the measurements.

[2] = test system: rabbit's brain hemispheres; assay: Amplitude of induced potential in brain hemispheres (acoustic irritation); type: in vivo; conditions: rabbits
Experimental: as §1, §2, §3

[3] = test system: learning ability of mice in a shuttle chamber; assay: Learning ability of mice in a shuttle chamber; type: in vivo, mouse; conditions: mice
[4] = test system: learning ability of rats preliminarily sorted out for poor learning ability; assay: Active avoidance learning in a shuttle chamber, rats sorted out for poor learning ability; type: in vivo, rat; conditions: poorly learning rats, hypodermally 100 mg/kg
Text: (§4) In these experiments rats are taught to avoid an electric shock by escaping into a next chamber communicating with the first chamber by means of a special opening--a door. An electric current is applied to the chamber door consisting of metal plates. A conditional irritator is a light signal together with a sound click. The learning series consisted of 50 combinations. The number of combinations necessary for the animal's learning to escape into another chamber in response to the conditional signal was determined. Five correct responses out of 6 where regarded as the proof of stability of the acquired knowledge and were denoted as a "learning criterion". After 7 days the educational procedure was repeated, and again the number of combinations necessary to acquire the "learning criterion" was determined. In the case of difference between the first and second readings the percentage of retention of the acquired knowledge was calculated.
(§5) In this experiment the effect of the preparation according to the present invention and prior art preparations was separately evaluated for the purpose of comparison on well-learning and on specially selected poorly learning rats. […] To the poorly learning rats the animals were assigned which reached no "learning criterion" in the teaching series of 50 combinations, or, in other words, a stable knowledge of active avoidance was not worked out in them. […] The preparation according to the present invention and the prior art comparison preparations were administered before the first teaching series or thereafter.
(§6) Also studied were the effects produced upon a single and repeated administration of the preparation according to the present invention for 14 days.

patients = assay: Clinical study on patients with memory disorders, compared to pyracetam; type: in vivo, human
Text: The preparation according to the present invention was studied in clinics on 130 patients.
As regards diagnosis and sex the patients were distributed as follows:
skull-brain traumata with memory disturbance: 75 patients (52 men and 23 women)
Alzheimer's disease: 15 patients (3 men and 12 women)
Pick's disease: 5 patients (5 men)
Senile dementia: 15 patients (4 men and 11 women)
Vascular dementia (cerabral atero-sclerosis, hypertonic disease): 20 patients (7 men and 13 women)
In the group of patients with skull-brain trauma the patient's age varied from 17 to 60 years, in the other patients--from 52 to 75 years.
In addition to clinico-psychopathological methods of investigation, all the patients were subjected to neuropsychological studies during which specific tasks were offered them to solve. In doing so, the response was assessed against a 4-points scale: 3--maximally pronounced disorder, full or substantially full incapability to deal with the task set; 2--a medium degree of manifestation of the deficiency, solving the task with the experimentator's assistance; 1--minor errors, independent correction of mistakes; 0--lack of disturbances.
The treatment course duration is 30-60 days. In the case of an acute skull-brain trauma (65 patients) the treatment started 15-20 days after the moment of trauma and lasted for 20-30 days.
It is known that the function of memory has a complex brain organization and different zones of brains take part in its regulation. During the studies a multi-faceted assessment of the memory function was carried out; there were assessed: (1) mnestic component of the environmental orientation of a patient; (2) involuntary memory for current events; (3) intentional exo-experimental memory; (4) volume and soundness of audio-speaking memory; (5) volume and soundness of visual memory; (6) operative memory; (7) memory for knowledge acquired before the disease.

[5] = test system: learning ability of rats in a shuttle chamber; assay: Active avoidance learning in a shuttle chamber, rats; type: in vivo, rat; conditions: rats, hypodermally 100 mg/kg
Text: as §4, §5, §6

[6] = hypodermally 10 mg/kg, 12 day (retention)
[7] = hypodermally 30 mg/kg, 12 day (retention)
[8] = hypodermally 100 mg/kg, 1st day
[9] = hypodermally 100 mg/kg, 12 day (retention)
[10] = per os 30 mg/kg, 12 day (retention)
[11] = per os 100 mg/kg, 12 day (retention)

With `NC(=O)CN1CCCC1=O` [Pyracetam, pyracetam] the “asymmetry factor (in words)” value [1] was “failed to influence all these characteristics”, the “Asymmetry factor, Preparation” value ([1]; hypodermally 100 mg/kg, control 0.19 ± 0.03) was 0.213 ± 0.05 and the “amplitude of induced potentials (in words)” value [2] was “failed to influence all these characteristics”. For the same molecule, the “learning and memory (in words)” value ([3]; hypodermally) was “improves learning, but not memory”, the “% of avoidance reactions, group I” value ([3]; hypodermally 10 mg/kg, 1st day) was 23% and the “% of avoidance reactions, group II” value ([3]; hypodermally 10 mg/kg, 1st day) was 33%. The “% of avoidance reactions, group III” value ([3]; hypodermally 10 mg/kg, 1st day) was 48%, the “% of avoidance reactions, group IV” value ([3]; hypodermally 10 mg/kg, 1st day) was 52% and the “% of avoidance reactions, group V” value ([3]; hypodermally 10 mg/kg, 1st day) was 60%. For the same molecule, the “% of avoidance reactions, group VI” value ([3]; hypodermally 10 mg/kg, 1st day) was 61%, the “% of avoidance reactions, group I” value [3, 6] was 60% and the “% of avoidance reactions, group II” value [3, 6] was 78%. For the same molecule, the “% of avoidance reactions, group III” value [3, 6] was 80%, the “% of avoidance reactions, group IV” value [3, 6] was 79% and the “% of avoidance reactions, group V” value [3, 6] was 80%. The “% of avoidance reactions, group VI” value [3, 6] was 78%, the “% of avoidance reactions, group I” value ([3]; hypodermally 30 mg/kg, 1st day) was 20% and the “% of avoidance reactions, group II” value ([3]; hypodermally 30 mg/kg, 1st day) was 32%. The “% of avoidance reactions, group III” value ([3]; hypodermally 30 mg/kg, 1st day) was 55%, the “% of avoidance reactions, group IV” value ([3]; hypodermally 30 mg/kg, 1st day) was 67% and the “% of avoidance reactions, group V” value ([3]; hypodermally 30 mg/kg, 1st day) was 70%. For the same molecule, the “% of avoidance reactions, group VI” value ([3]; hypodermally 30 mg/kg, 1st day) was 75%, the “% of avoidance reactions, group I” value [3, 7] was 60% and the “% of avoidance reactions, group II” value [3, 7] was 80%. For the same molecule, the “% of avoidance reactions, group III” value [3, 7] was 82%, the “% of avoidance reactions, group IV” value [3, 7] was 81% and the “% of avoidance reactions, group V” value [3, 7] was 84%. For the same molecule, the “% of avoidance reactions, group VI” value [3, 7] was 88%, the “% of avoidance reactions, group I” value [3, 8] was 24% and the “% of avoidance reactions, group II” value [3, 8] was 41%. For the same molecule, the “% of avoidance reactions, group III” value [3, 8] was 55%, the “% of avoidance reactions, group IV” value [3, 8] was 70% and the “% of avoidance reactions, group V” value [3, 8] was 72%. The “% of avoidance reactions, group VI” value [3, 8] was 74%, the “% of avoidance reactions, group I” value [3, 9] was 62% and the “% of avoidance reactions, group II” value [3, 9] was 90%. For the same molecule, the “% of avoidance reactions, group III” value [3, 9] was 92%, the “% of avoidance reactions, group IV” value [3, 9] was 90% and the “% of avoidance reactions, group V” value [3, 9] was 90%. The “% of avoidance reactions, group VI” value [3, 9] was 92%, the “effect upon per os administration (in words)” value ([3]; per os) was “the effect is noticeably reduced” and the “% of avoidance reactions, group I” value ([3]; per os 30 mg/kg, 1st day) was 11%. The “% of avoidance reactions, group II” value ([3]; per os 30 mg/kg, 1st day) was 17%, the “% of avoidance reactions, group III” value ([3]; per os 30 mg/kg, 1st day) was 31% and the “% of avoidance reactions, group IV” value ([3]; per os 30 mg/kg, 1st day) was 32%. For the same molecule, the “% of avoidance reactions, group V” value ([3]; per os 30 mg/kg, 1st day) was 33%, the “% of avoidance reactions, group VI” value ([3]; per os 30 mg/kg, 1st day) was 40% and the “% of avoidance reactions, group I” value [3, 10] was 48%. The “% of avoidance reactions, group II” value [3, 10] was 70%, the “% of avoidance reactions, group III” value [3, 10] was 71% and the “% of avoidance reactions, group IV” value [3, 10] was 78%. The “% of avoidance reactions, group V” value [3, 10] was 78%, the “% of avoidance reactions, group VI” value [3, 10] was 81% and the “% of avoidance reactions, group I” value ([3]; per os 100 mg/kg, 1st day) was 21%. For the same molecule, the “% of avoidance reactions, group II” value ([3]; per os 100 mg/kg, 1st day) was 22%, the “% of avoidance reactions, group III” value ([3]; per os 100 mg/kg, 1st day) was 32% and the “% of avoidance reactions, group IV” value ([3]; per os 100 mg/kg, 1st day) was 42%. The “% of avoidance reactions, group V” value ([3]; per os 100 mg/kg, 1st day) was 43%, the “% of avoidance reactions, group VI” value ([3]; per os 100 mg/kg, 1st day) was 52% and the “% of avoidance reactions, group I” value [3, 11] was 69%. For the same molecule, the “% of avoidance reactions, group II” value [3, 11] was 80%, the “% of avoidance reactions, group III” value [3, 11] was 82% and the “% of avoidance reactions, group IV” value [3, 11] was 79%. For the same molecule, the “% of avoidance reactions, group V” value [3, 11] was 78%, the “% of avoidance reactions, group VI” value [3, 11] was 78% and the “% of knowledge retention” value [4] was 26%. The “Number of combinations till appearance of "learning criterion", I teaching” value [4] was 30.3 ± 2.5, the “Number of combinations till appearance of "learning criterion", II-checking of retention of knowledge” value [4] was 22.4 ± 2.1 and the “Number of untaught animals in the group” value [4] was 9/20. The “effect on the functional symmetry of the brain and activity of the dominating hemisphere” value (patients; experimental and clinical studies) was “no such effect”, the “character of recovery (in words)” value (patients; patients) was “uniform regression of all available disorders” and the “Number of combinations to reach the "learning criterion" in II teaching series (after 7 days)” value [5] was 4.7 ± 0.9. For the same molecule, the “Number of combinations to reach the "learning criterion" in the I teaching series” value [5] was 20.8 ± 1.2, the “Number of non-taught animals in the group” value [5] was 1/20 and the Percentage knowledge retention [5] was 70%.
